From ChEMBL document CHEMBL6087486, “Monomeric or Homodimer Conjugates of Fibroblast Activation Protein Inhibitor and Cyanine 7 Bearing a Meso-Chloride as Near-Infrared Fluorescence Probes: Design, Synthesis, and Comparative In Vivo Imaging of Distinct Breast Cancer Subtypes” (J Med Chem, 2025)
Active and inactive are the calls of the source. The calls are words filed in the database; no cut-off is given here.

Key:
[1] = AUC (0 to t) in ICR mouse at 2 mg/kg, iv measured upto 24 hrs by LC-MS/MS analysis; type: ADME, organism-based; details: in vivo
[2] = Emission property of compound in methanol assessed as maximal wavelength at 0.5 to 4 uM by […]; type: physicochemical; details: dose 0.5-4 µM
MCF7 [3] = test: Cytotoxicity against human MCF7 cells at; type: functional, cell-based; details: dose < 2.0 µM, time 24.0 hrs
MCF7 [4] = test: Antitumor activity against human MCF7 cells xenografted in mouse assessed as tumor shrinkage at 20 mg/kg, iv administered on days 1, 6, 11 and 16 measured on day 10; type: functional, organism-based; details: time 10.0 day
MDA-MB-231 [5] = test: Cytotoxicity against human MDA-MB-231 cells at; type: functional, cell-based; details: dose < 2.0 µM, time 24.0 hrs
[6] = Biodistribution in tumor of NCG mouse xenografted with human MDA-MB-231 cells at 15 uM, iv measured for 24 hrs by IVIS analysis; type: ADME, organism-based, Neoplasm; details: in vivo
[7] = Absorption property of compound in methanol assessed as maximal wavelength at 0.5 to 4 uM by UV-vis spectrophotometry; type: physicochemical; details: dose 0.5-4 µM
[8] = Clearance in ICR mouse at 2 mg/kg, iv measured upto 24 hrs by LC-MS/MS analysis; type: ADME, organism-based; details: in vivo
[9] = Metabolic stability in mouse liver microsomes assessed as intrinsic clearance; type: ADME, Microsome; details: read-out: CLH
[10] = Half life in ICR mouse at 2 mg/kg, iv measured upto 24 hrs by LC-MS/MS analysis; type: ADME, organism-based; details: in vivo
[11] = Tlast in ICR mouse at 2 mg/kg, iv measured upto 24 hrs by LC-MS/MS analysis; type: ADME, organism-based; details: in vivo
MCF7 [12] = test: Cytotoxicity against human MCF7 cells at >=5 uM after 24 hrs by CCK8 assay; type: functional, cell-based
[13] = Biodistribution in liver of NCG mouse xenografted with human MDA-MB-231 cells at 15 uM, iv measured for 24 hrs by IVIS analysis; type: ADME, organism-based; details: in vivo
[14] = Drug uptake in human MCF7 cells assessed as fold increase in fluorescence intensity at 2 uM incubated for 2 hrs by CLSM analysis relative to control; type: functional
MCF7 [15] = test: Cytotoxicity against human MCF7 cells at 20 uM after 24 hrs by CCK8 assay relative to control; type: functional
[16] = Metabolic stability in human liver microsomes assessed as intrinsic clearance; type: ADME, Microsome; details: read-out: CLH
[17] = MRT (0 to t) in ICR mouse at 2 mg/kg, iv measured upto 24 hrs by LC-MS/MS analysis; type: ADME, organism-based; details: in vivo
[18] = Metabolic stability in human liver microsomes assessed as half life; type: ADME, Microsome
[19] = Biodistribution in tumor of NCG mouse xenografted with human MCF7 cells assessed as maximum fluorescence intensity at 15 uM, iv measured after 8 hrs by IVIS analysis; type: ADME, organism-based, Neoplasm; details: in vivo
[20] = Apparent volume of distribution in ICR mouse at 2 mg/kg, iv measured upto 24 hrs by LC-MS/MS analysis; type: ADME, organism-based; details: in vivo, read-out: Vz
[21] = Metabolic stability in mouse liver microsomes assessed as hepatic clearance rate; type: ADME, Microsome; details: read-out: CLH
MCF7 [22] = test: Antitumor activity against human MCF7 cells xenografted in mouse assessed as tumor growth inhibition administered intravenously on days 1, 6, 11 and 16 measured on day 21; type: functional; details: dose 10-20 mg/kg, route iv, time 21.0 day
[23] = Metabolic stability in human liver microsomes assessed as hepatic clearance rate; type: ADME, Microsome; details: read-out: CLH
[24] = Ratio of drug uptake in tumor to liver of NCG mouse xenografted with human MDA-MB-231 cells at 15 uM, iv measured after 48 hrs by IVIS analysis; type: ADME, organism-based; details: in vivo
MCF7 [25] = test: Antitumor activity against human MCF7 cells xenografted in mouse assessed as decrease in tumor volume at 10 mg/kg, iv administered on days 1, 6, 11 and 16 measured on day 10; type: functional, organism-based; details: time 10.0 day
[26] = C0 in ICR mouse at 2 mg/kg, iv measured upto 24 hrs by LC-MS/MS analysis; type: ADME, organism-based; details: in vivo
[27] = Biodistribution in liver of NCG mouse xenografted with human MCF7 cells at 15 uM, iv measured after 0.5 hrs by IVIS analysis; type: ADME, organism-based; details: in vivo
[28] = Metabolic stability in mouse liver microsomes assessed as half life; type: ADME, Microsome
[29] = Drug uptake in human MDA-MB-231 cells assessed as fold increase in fluorescence intensity at 2 uM incubated for 2 hrs by CLSM analysis relative to control; type: functional
[30] = AUC (0 to infinity) in ICR mouse at 2 mg/kg, iv measured upto 24 hrs by LC-MS/MS analysis; type: ADME, organism-based; details: in vivo
MCF7 [31] = test: Antitumor activity against human MCF7 cells xenografted in mouse assessed as obvious effect at 10 to 20 mg/kg, iv administered on days 1, 6, 11 and 16 measured on day 21; type: functional, organism-based; details: dose 10-20 mg/kg, time 21.0 day
[32] = Biodistribution in tumor of NCG mouse xenografted with human MDA-MB-231 cells assessed as maximum fluorescence intensity at 15 uM, iv measured for 24 hrs by IVIS analysis; type: ADME, organism-based, Neoplasm; details: in vivo
[33] = MRT (0 to infinity) in ICR mouse at 2 mg/kg, iv measured upto 24 hrs by LC-MS/MS analysis; type: ADME, organism-based; details: in vivo
[34] = Toxicity in mouse xenografted with human MCF7 cells assessed as change in body weight at 10 to 20 mg/kg, iv administered on days 1, 6, 11 and 16 measured for 21 days; type: organism-based; details: in vivo, 504 h, dose 10-20 mg/kg, time 21 day
[35] = Volume of distribution at steady state in ICR mouse at 2 mg/kg, iv measured upto 24 hrs by LC-MS/MS analysis; type: ADME, organism-based; details: in vivo, read-out: Vdss
[36] = Ratio of drug uptake in tumor to liver of NCG mouse xenografted with human MCF7 cells at 15 uM, iv measured after 72 hrs by IVIS analysis; type: ADME, organism-based; details: in vivo
[37] = Biodistribution in tumor of NCG mouse xenografted with human MCF7 cells at 15 uM, iv measured after 1 to 2 hrs by IVIS analysis; type: ADME, organism-based, Neoplasm; details: in vivo, time 1-2 hrs
MDA-MB-231 [38] = test: Cytotoxicity against human MDA-MB-231 cells assessed as survival rate upto 20 uM after 24 hrs by CCK8 assay relative to control; type: functional; details: up to 20 µM
[39] = Biodistribution in tumor of NCG mouse xenografted with human MDA-MB-231 cells 15 uM, iv measured upto 72 hrs by IVIS analysis; type: ADME, organism-based, Neoplasm; details: in vivo
MDA-MB-231 [40] = test: Cytotoxicity against human MDA-MB-231 cells assessed as survival rate at 20 uM after 24 hrs by CCK8 assay relative to control; type: functional; details: read-out: Survival
MCF7 [41] = test: Cytotoxicity against human MCF7 cells assessed as survival rate at 20 uM after 24 hrs by CCK8 assay relative to control; type: functional; details: read-out: Survival
[42] = Biodistribution in tumor of NCG mouse xenografted with human MCF7 cells assessed as increase in retention time at 15 uM, iv measured for 0.5 to 72 hrs by IVIS analysis; type: ADME, organism-based, Neoplasm; details: in vivo, time 0.5-72 hrs
[43] = Ratio of drug uptake in tumor to liver of NCG mouse xenografted with human MDA-MB-231 cells at 15 uM, iv measured upto 72 hrs by IVIS analysis; type: ADME, organism-based; details: in vivo
[44] = Biodistribution in tumor of NCG mouse xenografted with human MCF7 cells at 15 uM, iv measured for 0.5 to 72 hrs by IVIS analysis; type: ADME, organism-based, Neoplasm; details: in vivo, time 0.5-72 hrs
[45] = Biodistribution in tumor of NCG mouse xenografted with human MDA-MB-231 cells assessed as increase in retention time at 15 uM, iv measured for 0.5 to 72 hrs by IVIS analysis; type: ADME, organism-based, Neoplasm; details: in vivo, time 0.5-72 hrs
[46] = Biodistribution in liver of NCG mouse xenografted with human MCF7 cells at 15 uM, iv measured after 4 hrs by IVIS analysis; type: ADME, organism-based; details: in vivo
[47] = Biodistribution in tumor of NCG mouse xenografted with human MDA-MB-231 cells assessed as maximum fluorescence intensity at 15 uM, iv measured for 2 to 48 hrs by IVIS analysis; type: ADME, organism-based, Neoplasm; details: in vivo, time 2-48 hrs
[48] = Biodistribution in tumor of NCG mouse xenografted with human MDA-MB-231 cells assessed as fluorescence intensity at 15 uM, iv measured after 4 hrs by IVIS analysis; type: ADME, organism-based, Neoplasm; details: in vivo
MCF7 [49] = test: Cytotoxicity against human MCF7 cells at >25 uM after 24 hrs by CCK8 assay; type: functional, cell-based
MDA-MB-231 [50] = test: Cytotoxicity against human MDA-MB-231 cells at >25 uM after 24 hrs by CCK8 assay; type: functional, cell-based

| SMILES | AUC(0-t) at 24 h [1] | Activity [2] | Activity (MCF7 [3]) | Activity (MDA-MB-231 [5]) | Activity [7] | clearance [8] | microsomal CLint [9] | half-life [10] | Tlast [11] | fold change (FC) [14] | microsomal CLint [16] | MRT last at 24 h [17] | half-life [18] | Vd [20] | CLint scaled [21] | CLint scaled [23] | C0 at 24 h [26] | half-life [28] | fold change (FC) [29] | AUC(0-inf) [30] | further results |
| --- | --- | --- | --- | --- | --- | --- | --- | --- | --- | --- | --- | --- | --- | --- | --- | --- | --- | --- | --- | --- | --- |
| C#CCCCN1/C(=C/C=C2\CCCC(/C=C/C3=[N+](CCCc4cn(CCOCCOCCOCCOCCC(=O)N5CCN(CCCN(C)c6ccc7nccc(C(=O)NCC(=O)N8CC(F)(F)C[C@H]8C#N)c7c6)CC5)nn4)c4ccccc4C3(C)C)=C2Cl)C(C)(C)c2ccccc21 | 165 ng·h/mL | 820 nm | inactive | inactive | 783 nm | 204 mL/min/kg | 325 µL/min/mg | 12.5 min | 1.5 h | 280 | 253 µL/min/mg | 10.4 min | 5.5 min | 3.92 L/kg | 1290 mL/min/kg | 228 mL/min/kg | 829 ng/mL | 4.3 min | 431 | 166 ng·h/mL | Activity (MCF7 [4]): Active; Drug uptake [6]: Active; Activity (MCF7 [12]): Active; Drug uptake [13]: Not_active; Activity (MCF7 [15]): 4.5%; Flu intensity [19]: 6.13 10^7No_unit; inhibition (MCF7 [22]): Dose-dependent-effect; Ratio [24]: 4.47; Activity (MCF7 [25]): inactive; Drug uptake [27]: Not_active; Activity (MCF7 [31]): Active; Flu intensity [32]: 8.43 10^7No_unit; MRT inf [33]: 11.4 min; Activity [34]: Non-toxic; Vd [35]: 2.45 L/kg; Ratio [36]: 2.43; Drug uptake [37]: Active; Survival (MDA-MB-231 [38]): ~80% |
| CN(CCCN1CCN(C(=O)CCOCCOCCOCCOCCn2cc(CCCN3/C(=C/C=C4\CCCC(/C=C/C5=[N+](CCCc6cn(CCOCCOCCOCCOCCC(=O)N7CCN(CCCN(C)c8ccc9nccc(C(=O)NCC(=O)N%10CC(F)(F)C[C@H]%10C#N)c9c8)CC7)nn6)c6ccccc6C5(C)C)=C4Cl)C(C)(C)c4ccccc43)nn2)CC1)c1ccc2nccc(C(=O)NCC(=O)N3CC(F)(F)C[C@H]3C#N)c2c1 | 3600 ng·h/mL | 823 nm | inactive | inactive | 784 nm | 9 mL/min/kg | 313 µL/min/mg | 690 min | 24 h | 45 | 430 µL/min/mg | 36.2 min | 3.2 min | 9.15 L/kg | 1240 mL/min/kg | 387 mL/min/kg | 16800 ng/mL | 4.4 min | 81 | 3650 ng·h/mL | Drug uptake [39]: Active; viability at 20 µM (MDA-MB-231 [40]): 67%; viability at 20 µM (MCF7 [41]): 60%; Drug uptake [42]: Active; Ratio [43]: > 3; Drug uptake [44]: Active; Drug uptake [45]: Active; Drug uptake [46]: Not_active; Flu intensity [47]: 2.5 10^8No_unit; Flu intensity [48]: > 2 10^8No_unit; MRT inf [33]: 63.6 min; Vd [35]: 0.583 L/kg; Ratio [36]: 2.07 |
| CN(CCCN1CCN(C(=O)CN2CCN(CC(=O)O)CCN(CC(=O)O)CCN(CC(=O)O)CC2)CC1)c1ccc2nccc(C(=O)NCC(=O)N3CC(F)(F)C[C@H]3C#N)c2c1 | – | – | – | – | – | – | – | – | – | – | – | – | – | – | – | – | – | – | – | – | Activity (MCF7 [49]): Active; Activity (MDA-MB-231 [50]): Active |
| CN(CCCN1CCN(C(=O)OC(C)(C)C)CC1)c1ccc2nccc(C(=O)NCC(=O)N3CC(F)(F)C[C@H]3C#N)c2c1 | – | – | – | – | – | – | – | – | – | – | – | – | – | – | – | – | – | – | – | – | Activity (MCF7 [49]): Active; Activity (MDA-MB-231 [50]): Active |
